Reference: patent US9914730B2, “Azaquinazoline inhibitors of Atypical protein Kinase C” (Ignyta, Inc., priority 2012, dated 2018)
Structures can show the parent of a compound that is named as a salt.

Molecular target: T1, full-length human PKCι (Homo sapiens, UniProt P41743)
T1 construct: Recombinant, full-length human PKCι expressed in Sf21 insect cells is also commercially available; purchased; host or cells: Sf21 insect cells
T1 sequence (P41743 1-596): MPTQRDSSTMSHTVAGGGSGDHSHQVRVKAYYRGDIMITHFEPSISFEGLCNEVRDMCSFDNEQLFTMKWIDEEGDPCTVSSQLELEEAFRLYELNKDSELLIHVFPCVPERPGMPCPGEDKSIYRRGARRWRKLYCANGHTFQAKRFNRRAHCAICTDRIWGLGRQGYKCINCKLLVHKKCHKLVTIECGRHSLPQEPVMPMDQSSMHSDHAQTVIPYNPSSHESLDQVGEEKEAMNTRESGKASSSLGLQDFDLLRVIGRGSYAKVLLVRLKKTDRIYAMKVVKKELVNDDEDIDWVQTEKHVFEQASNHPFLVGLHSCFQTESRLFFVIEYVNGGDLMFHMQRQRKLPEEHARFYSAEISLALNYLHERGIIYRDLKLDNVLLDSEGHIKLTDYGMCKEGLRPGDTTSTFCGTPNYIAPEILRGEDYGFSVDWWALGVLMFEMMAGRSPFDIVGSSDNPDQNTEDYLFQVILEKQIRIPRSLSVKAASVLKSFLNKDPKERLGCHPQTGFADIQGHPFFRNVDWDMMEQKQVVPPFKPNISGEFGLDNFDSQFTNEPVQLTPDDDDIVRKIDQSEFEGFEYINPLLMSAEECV
Test: PKCι IC50 IMAP assay, full-length PKCι at 150 μM ATP
Type: biochemical
Conditions: read-out: IC50 in IMAP assay against full length PKCi at 150 μM ATP
Method in brief: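 Compounds in 4% final DMSO are mixed with Sf21-derived full-length human PKCι (typically 15 pM) and 100 nM FAM-labelled pseudosubstrate peptide, then started with 150 μM ATP. Reaction runs 60 min at room temperature, is quenched with IMAP development reagent for 2 h, and fluorescence polarisation is measured to derive IC50.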

Row | SMILES | IC50
1 | N#Cc1cccc(Nc2cc(-c3nc(N4CC[C@H](O)[C@H](O)C4)c4c(C5CC5)cncc4n3)ccn2)n1 (relative stereo) [Example 745, 6-{4-[5-Cyclopropyl-4-((cis)-3,4-dihydroxy-piperidin-1-yl)-pyrido[3,4-d]pyrimidin-2-yl]-pyridin-2-ylamino}-pyridine-2-carbonitrile] | 100 to 1000 nM
2 | c1ccc(C2(c3cc4c(-c5nc(N6CCNCC6)c6c(C7CCC7)cncc6n5)ccnc4[nH]3)CCC2)cc1 [Example 2181, 5-Cyclobutyl-2-[2-(1-phenyl-cyclobutyl)-1H-pyrrolo[2,3-b]pyridin-4-yl]-4-piperazin-1-yl-pyrido[3,4-d]pyrimidine] | < 100 nM
3 | c1cc2c(N[C@@H]3CCNC3)nc(-c3ccnc(Nc4cc(N5CCOCC5)ccn4)c3)nc2cn1 [Example 343, {2-[2-(4-Morpholin-4-yl-pyridin-2-ylamino)-pyridin-4-yl]-pyrido[3,4-d]pyrimidin-4-yl}-(R)-pyrrolidin-3-yl-amine] | 100 to 1000 nM
4 | COc1cncc2nc(-c3ccnc(Nc4ccc(CC(N)=O)cc4)c3)nc(N[C@@H]3CCNC3)c12 [Example 326, 2-(4-{4-[5-Methoxy-4-((R)-pyrrolidin-3-ylamino)-pyrido[3,4-d]pyrimidin-2-yl]-pyridin-2-ylamino}-phenyl)-acetamide] | 100 to 1000 nM
5 | Fc1cccc(Nc2cc(-c3nc(N4CCNCC4)c4c(Cl)cncc4n3)ccn2)c1F [Example 252, [4-(5-Chloro-4-piperazin-1-yl-pyrido[3,4-d]pyrimidin-2-yl)-pyridin-2-yl]-(2,3-difluoro-phenyl)-amine] | 100 to 1000 nM
6 | OC1CN(c2nc(-c3ccnc(Nc4cccc(N5CCNCC5)c4)c3)nc3cncc(C4CC4)c23)C1 [Example 778, 1-{5-Cyclopropyl-2-[2-(3-piperazin-1-yl-phenylamino)-pyridin-4-yl]-pyrido[3,4-d]pyrimidin-4-yl}-azetidin-3-ol] | < 100 nM
7 | FC(F)(F)C1(c2cc3c(-c4nc(N5CCNCC5)c5c(C6CCC6)cncc5n4)ccnc3[nH]2)CCC1 [Example 2183, 5-Cyclobutyl-4-piperazin-1-yl-2-[2-(1-trifluoromethyl-cyclobutyl)-1H-pyrrolo[2,3-b]pyridin-4-yl]-pyrido[3,4-d]pyrimidine] | < 100 nM
8 | c1cc2c(N[C@@H]3CCNC3)nc(N3CCOCC3)nc2cn1 [Example 1011, (2-Morpholin-4-yl-pyrido[3,4-d]pyrimidin-4-yl)-(R)-pyrrolidin-3-yl-amine] | 1000 to 10000 nM
9 | Nc1ccc(C(=O)Nc2cc(-c3nc(N[C@@H]4CCNC4)c4ccncc4n3)ccn2)cc1 [Example 305, 4-Amino-N-{4-[4-((R)-pyrrolidin-3-ylamino)-pyrido[3,4-d]pyrimidin-2-yl]-pyridin-2-yl}-benzamide] | 100 to 1000 nM
10 | Fc1ccnc(Nc2cc(-c3nc(N4CCNCC4)c4c(C5CCC5)cncc4n3)ccn2)c1 [Example 785, [4-(5-Cyclobutyl-4-piperazin-1-yl-pyrido[3,4-d]pyrimidin-2-yl)-pyridin-2-yl]-(4-fluoro-pyridin-2-yl)-amine] | < 100 nM
11 | c1cc(-c2nc(N3CCN[C@@H](C4CC4)C3)c3c(C4CC4)cncc3n2)c2cc[nH]c2n1 [Example 1220, 5-Cyclopropyl-4-((S)-3-cyclopropyl-piperazin-1-yl)-2-(1H-pyrrolo[2,3-b]pyridin-4-yl)-pyrido[3,4-d]pyrimidine] | < 100 nM
12 | Fc1cncc(F)c1Nc1cc(-c2nc(N3CCNCC3)c3c(C4CC4)cncc3n2)ccn1 [Example 705, [4-(5-Cyclopropyl-4-piperazin-1-yl-pyrido[3,4-d]pyrimidin-2-yl)-pyridin-2-yl]-(3,5-difluoro-pyridin-4-yl)-amine] | < 100 nM
13 | c1ccc2c(c1)[nH]c1nccc(-c3nc(N4CCNCC4)c4c(C5CC5)cncc4n3)c12 [Example 1253, 4-(5-Cyclopropyl-4-piperazin-1-yl-pyrido[3,4-d]pyrimidin-2-yl)-9H-pyrido[2,3-b]indole trifluoroacetic acid salt] | < 100 nM
14 | N#Cc1ccc(F)c(Nc2cc(-c3nc(N4CCNCC4)c4c(C5CC5)cncc4n3)ccn2)c1 [Example 528, 3-[4-(5-Cyclopropyl-4-piperazin-1-yl-pyrido[3,4-d]pyrimidin-2-yl)-pyridin-2-ylamino]-4-fluoro-benzonitrile] | 100 to 1000 nM
15 | COc1cncc2nc(N3CCOCC3)nc(N3CCN[C@@H](COc4ccccc4F)C3)c12 [Example 1008, 4-[(R)-3-(2-Fluoro-phenoxymethyl)-piperazin-1-yl]-5-methoxy-2-morpholin-4-yl-pyrido[3,4-d]pyrimidine] | 100 to 1000 nM
16 | CN[C@H](CNc1nc(-c2ccncc2)nc2cnccc12)Cc1ccccc1 [Example 80, methyl[(2S)-1-phenyl-3-{[2-(pyridin-4-yl)pyrido[3,4-d]pyrimidin-4-yl]amino}propan-2-yl]amine] | 100 to 1000 nM
17 | OC[C@@H](Nc1cc(-c2nc(N3CCNCC3)c3c(C4CC4)cncc3n2)ccn1)c1ccccc1 [Example 2164, (S)-2-[4-(5-Cyclopropyl-4-piperazin-1-yl-pyrido[3,4-d]pyrimidin-2-yl)-pyridin-2-ylamino]-2-phenyl-ethanol] | < 100 nM
18 | c1cnnc(Nc2cc(-c3nc(N4CCNCC4)c4c(C5CC5)cncc4n3)ccn2)c1 [Example 545, [4-(5-Cyclopropyl-4-piperazin-1-yl-pyrido[3,4-d]pyrimidin-2-yl)-pyridin-2-yl]-pyridazin-3-yl-amine] | < 100 nM
19 | FC(F)(F)c1cc2c(-c3nc(N4CCNC(C(F)(F)F)C4)c4c(C5CC5)cncc4n3)ccnc2[nH]1 (stereo not drawn) [Example 1236, 5-Cyclopropyl-4-(3-trifluoromethyl-piperazin-1-yl)-2-(2-trifluoromethyl-1H-pyrrolo[2,3-b]pyridin-4-yl)-pyrido[3,4-d]pyrimidine] | 1000 to 10000 nM
20 | C[C@H]1CN(c2nc(-c3ccnc(Nc4ccccc4F)c3)nc3cncc(C4CC4)c23)CCN1 [Example 691, {4-[5-Cyclopropyl-4-((S)-3-methyl-piperazin-1-yl)-pyrido[3,4-d]pyrimidin-2-yl]-pyridin-2-yl}-(2-fluoro-phenyl)-amine] | < 100 nM
21 | c1ccc(-c2cccc(Nc3cc(-c4nc(N5CCNCC5)c5c(C6CC6)cncc5n4)ccn3)c2)cc1 [Example 2051, Biphenyl-3-yl-[4-(5-cyclopropyl-4-piperazin-1-yl-pyrido[3,4-d]pyrimidin-2-yl)-pyridin-2-yl]-amine] | < 100 nM
22 | CC(C)(C)c1cc2c(-c3nc(N4CCNCC4)c4c(C5CC5)cnc(F)c4n3)ccnc2[nH]1 [Example 2119, 2-(2-tert-Butyl-1H-pyrrolo[2,3-b]pyridin-4-yl)-5-cyclopropyl-8-fluoro-4-piperazin-1-yl-pyrido[3,4-d]pyrimidine] | < 100 nM
23 | N[C@H](CNc1nc(-c2ccncc2)nc2c(Nc3cccc(Cl)c3)nccc12)Cc1ccccc1 [Example 125, 4-N-[(2S)-2-amino-3-phenylpropyl]-8-N-(3-chlorophenyl)-2-(pyridin-4-yl)pyrido[3,4-d]pyrimidine-4,8-diamine] | 1000 to 10000 nM
24 | Cc1ccc(Nc2cc(-c3nc(N4CCNCC4)c4c(C5CC5)cncc4n3)ccn2)c(F)c1 [Example 575, [4-(5-Cyclopropyl-4-piperazin-1-yl-pyrido[3,4-d]pyrimidin-2-yl)-pyridin-2-yl]-(2-fluoro-4-methyl-phenyl)-amine] | < 100 nM
